Where “and” joins values, the source holds several entries; their conditions need not be identical. Identical values can stand only once. Counter-ions that a name gives are not always drawn.
Experiments:
albino rabbits = assay: Compatibility study, topical application to the rabbit eye over 28 days (EU Directive 92/69/EEC, method B.5); format: in vivo; settings: 50 μl aqueous solution pH 3.0-3.5, right eye, twelve albino rabbits
Description: In a compatibility study 50 μl of a moxaverine hydrochloride-bearing aqueous solution with a pH of 3.0-3.5 was applied to the right eye of twelve albino rabbits in each case over a period of 28 days with four applications per working day and two applications per weekend day in a single dose. The left eye served in each case as a control. Evaluation of the eye reaction was effected in accordance with the Table of EU Directive 92/69/EEC, Appendix, method B.5.

[1] = Absorption of 14C-marked moxaverine into eye tissues and plasma after ocular or systemic application; settings: for Amount of active substance in the moist tissue: single experiments
[2] = ocular application, after 30 minutes, Aqueous humor
[3] = ocular application, after 30 minutes, Lens
[4] = ocular application, after 30 minutes, Plasma
[5] = ocular application, after 120 minutes, Retina
[6] = systemic application (intravenous), after 30 minutes, Aqueous humor
[7] = systemic application (intravenous), after 30 minutes, Iris/ciliary process
[8] = systemic application (intravenous), after 30 minutes, Lens
[9] = systemic application (intravenous), after 30 minutes, Plasma
[10] = systemic application (intravenous), after 30 minutes, Retina
[11] = systemic application (intravenous), after 30 minutes, Vitreous humor
[12] = systemic application (intravenous), after 120 minutes, Aqueous humor
[13] = systemic application (intravenous), after 120 minutes, Conjunctiva
[14] = systemic application (intravenous), after 120 minutes, Iris/ciliary process
[15] = systemic application (intravenous), after 120 minutes, Lens
[16] = systemic application (intravenous), after 120 minutes, Plasma
[17] = systemic application (intravenous), after 120 minutes, Retina
[18] = systemic application (intravenous), after 120 minutes, Sclera
[19] = systemic application (intravenous), after 120 minutes, Vitreous humor

## CCc1cc2cc(OC)c(OC)cc2c(Cc2ccccc2)n1 [moxaverine hydrochloride]
Albino rabbits
  Eye reaction: changes to the iris, clouding of the cornea: No changes to the iris or clouding of the cornea were observed
  Eye reaction: swelling of the lids, reddening of the conjunctiva: No rabbit exhibited swelling of the lids or any reddening of the conjunctiva

## CCc1cc2cc(OC)c(OC)cc2c(Cc2ccccc2)n1 [moxaverine]
[1]; 30 minutes
  Factor by which concentration in the iris and the ciliary process is less with systemic than with topical application: ~6
[1]; 120 minutes
  Factor by which concentration in the iris and the ciliary process is less with systemic than with topical application: ~18
[1]; after 30 minutes
  Concentration in the retina, systemic compared to topical administration: slightly above
[1]; ocular application
  Concentration in the conjunctiva and the cornea after 120 minutes compared to 30 minutes: decreased
  Concentration in the iris and the ciliary process after 120 minutes compared to 30 minutes: almost doubled
  Increase of concentration in the retina after 120 minutes compared to 30 minutes: about 50%
[1]; [2]
  Amount of active substance in the moist tissue, Mean value: 1.9529E−07 mg of moxaverine/g of moist tissue
  Amount of active substance in the moist tissue: 1.4923E−07 mg of moxaverine/g of moist tissue and 2.6321E−07 mg of moxaverine/g of moist tissue and 1.7533E−07 mg of moxaverine/g of moist tissue
[1]; ocular application, after 30 minutes, Conjunctiva
  Amount of active substance in the moist tissue, Mean value: 6.1602E−04 mg of moxaverine/g of moist tissue
[1]; ocular application, after 30 minutes, Cornea
  Amount of active substance in the moist tissue, Mean value: 1.8538E−03 mg of moxaverine/g of moist tissue
[1]; ocular application, after 30 minutes, Iris/ciliary process
  Amount of active substance in the moist tissue, Mean value: 1.5028E−03 mg of moxaverine/g of moist tissue
[1]; [3]
  Amount of active substance in the moist tissue, Mean value: 4.9582E−05 mg of moxaverine/g of moist tissue
  Amount of active substance in the moist tissue: 4.6171E−05 mg of moxaverine/g of moist tissue and 6.1860E−05 mg of moxaverine/g of moist tissue and 4.0715E−05 mg of moxaverine/g of moist tissue
[1]; [4]
  Amount of active substance in the moist tissue, Mean value: 2.0234E−05 mg of moxaverine/g of moist tissue
  Amount of active substance in the moist tissue: 2.3741E−05 mg of moxaverine/g of moist tissue and 1.8259E−05 mg of moxaverine/g of moist tissue and 1.8702E−05 mg of moxaverine/g of moist tissue
[1]; ocular application, after 30 minutes, Retina
  Amount of active substance in the moist tissue, Mean value: 1.0031E−04 mg of moxaverine/g of moist tissue
[1]; ocular application, after 30 minutes, Sclera
  Amount of active substance in the moist tissue, Mean value: 1.0012E−04 mg of moxaverine/g of moist tissue
[1]; ocular application, after 30 minutes, Vitreous humor
  Amount of active substance in the moist tissue, Mean value: 1.1544E−07 mg of moxaverine/g of moist tissue
[1]; ocular application, after 120 minutes, Aqueous humor
  Amount of active substance in the moist tissue, Mean value: 9.3417E−08 mg of moxaverine/g of moist tissue
[1]; ocular application, after 120 minutes, Conjunctiva
  Amount of active substance in the moist tissue, Mean value: 3.7275E−04 mg of moxaverine/g of moist tissue
[1]; ocular application, after 120 minutes, Cornea
  Amount of active substance in the moist tissue, Mean value: 1.1057E−03 mg of moxaverine/g of moist tissue
[1]; ocular application, after 120 minutes, Iris/ciliary process
  Amount of active substance in the moist tissue, Mean value: 2.9849E−03 mg of moxaverine/g of moist tissue
[1]; ocular application, after 120 minutes, Lens
  Amount of active substance in the moist tissue, Mean value: 5.6780E−05 mg of moxaverine/g of moist tissue
[1]; ocular application, after 120 minutes, Plasma
  Amount of active substance in the moist tissue, Mean value: 1.2891E−05 mg of moxaverine/g of moist tissue
[1]; [5]
  Amount of active substance in the moist tissue, Mean value: 1.4397E−04 mg of moxaverine/g of moist tissue
  Amount of active substance in the moist tissue: 1.8933E−04 mg of moxaverine/g of moist tissue and 1.4755E−04 mg of moxaverine/g of moist tissue and 9.5039E−05 mg of moxaverine/g of moist tissue
[1]; ocular application, after 120 minutes, Sclera
  Amount of active substance in the moist tissue, Mean value: 1.0330E−04 mg of moxaverine/g of moist tissue
[1]; ocular application, after 120 minutes, Vitreous humor
  Amount of active substance in the moist tissue, Mean value: 9.6118E−09 mg of moxaverine/g of moist tissue
[1]; same application amount
  Absorption and biological availability in the eye, topical compared to systemic application: better absorbed by the eye with topical application and exhibits a markedly longer biological availability in the eye
[1]; systemic application
  Concentration in the iris and the ciliary process at 120 minutes as share of the concentration after 30 minutes: about 63%
  Factor of decrease of concentration in the retina from 30 to 120 minutes: 1.6
[1]; [6]
  Amount of active substance in the moist tissue, Mean value: 2.2632E−09 mg of moxaverine/g of moist tissue
  Amount of active substance in the moist tissue: 2.0291E−09 mg of moxaverine/g of moist tissue and 2.4973E−09 mg of moxaverine/g of moist tissue
[1]; systemic application (intravenous), after 30 minutes, Conjunctiva
  Amount of active substance in the moist tissue, Mean value: 2.4278E−05 mg of moxaverine/g of moist tissue
[1]; systemic application (intravenous), after 30 minutes, Cornea
  Amount of active substance in the moist tissue, Mean value: 8.1549E−06 mg of moxaverine/g of moist tissue
[1]; [7]
  Amount of active substance in the moist tissue, Mean value: 2.5186E−04 mg of moxaverine/g of moist tissue
  Amount of active substance in the moist tissue: 2.2898E−04 mg of moxaverine/g of moist tissue and 2.7473E−04 mg of moxaverine/g of moist tissue
[1]; [8]
  Amount of active substance in the moist tissue, Mean value: 1.2813E−06 mg of moxaverine/g of moist tissue
  Amount of active substance in the moist tissue: 9.5659E−07 mg of moxaverine/g of moist tissue and 1.6061E−06 mg of moxaverine/g of moist tissue
[1]; [9]
  Amount of active substance in the moist tissue, Mean value: 3.4421E−05 mg of moxaverine/g of moist tissue
  Amount of active substance in the moist tissue: 2.8375E−05 mg of moxaverine/g of moist tissue and 4.9032E−05 mg of moxaverine/g of moist tissue and 2.5855E−05 mg of moxaverine/g of moist tissue
[1]; [10]
  Amount of active substance in the moist tissue, Mean value: 1.3046E−04 mg of moxaverine/g of moist tissue
  Amount of active substance in the moist tissue: 1.0666E−04 mg of moxaverine/g of moist tissue and 1.5425E−04 mg of moxaverine/g of moist tissue
[1]; systemic application (intravenous), after 30 minutes, Sclera
  Amount of active substance in the moist tissue, Mean value: 3.3698E−05 mg of moxaverine/g of moist tissue
[1]; [11]
  Amount of active substance in the moist tissue, Mean value: 2.0811E−09 mg of moxaverine/g of moist tissue
  Amount of active substance in the moist tissue: 2.6534E−09 mg of moxaverine/g of moist tissue and 1.5088E−09 mg of moxaverine/g of moist tissue
[1]; [12]
  Amount of active substance in the moist tissue, Mean value: 1.9944E−09 mg of moxaverine/g of moist tissue
  Amount of active substance in the moist tissue: 2.3412E−09 mg of moxaverine/g of moist tissue and 1.8210E−09 mg of moxaverine/g of moist tissue
[1]; [13]
  Amount of active substance in the moist tissue, Mean value: 2.2936E−05 mg of moxaverine/g of moist tissue
  Amount of active substance in the moist tissue: 2.7539E−05 mg of moxaverine/g of moist tissue and 1.5261E−05 mg of moxaverine/g of moist tissue and 2.6009E−05 mg of moxaverine/g of moist tissue
[1]; systemic application (intravenous), after 120 minutes, Cornea
  Amount of active substance in the moist tissue, Mean value: 7.6083E−06 mg of moxaverine/g of moist tissue
[1]; [14]
  Amount of active substance in the moist tissue, Mean value: 1.5907E−04 mg of moxaverine/g of moist tissue
  Amount of active substance in the moist tissue: 1.2211E−04 mg of moxaverine/g of moist tissue and 1.6708E−04 mg of moxaverine/g of moist tissue and 1.8802E−04 mg of moxaverine/g of moist tissue
[1]; [15]
  Amount of active substance in the moist tissue, Mean value: 1.5477E−06 mg of moxaverine/g of moist tissue
  Amount of active substance in the moist tissue: 1.3706E−06 mg of moxaverine/g of moist tissue and 2.0870E−06 mg of moxaverine/g of moist tissue and 1.1854E−06 mg of moxaverine/g of moist tissue
[1]; [16]
  Amount of active substance in the moist tissue, Mean value: 2.2620E−05 mg of moxaverine/g of moist tissue
  Amount of active substance in the moist tissue: 2.4420E−05 mg of moxaverine/g of moist tissue and 2.1190E−05 mg of moxaverine/g of moist tissue and 2.2250E−05 mg of moxaverine/g of moist tissue
[1]; [17]
  Amount of active substance in the moist tissue, Mean value: 7.7330E−05 mg of moxaverine/g of moist tissue
  Amount of active substance in the moist tissue: 9.5067E−05 mg of moxaverine/g of moist tissue and 8.3068E−05 mg of moxaverine/g of moist tissue and 5.3855E−05 mg of moxaverine/g of moist tissue
[1]; [18]
  Amount of active substance in the moist tissue, Mean value: 1.3993E−05 mg of moxaverine/g of moist tissue
  Amount of active substance in the moist tissue: 1.4230E−05 mg of moxaverine/g of moist tissue and 1.1476E−05 mg of moxaverine/g of moist tissue and 1.6272E−05 mg of moxaverine/g of moist tissue
[1]; [19]
  Amount of active substance in the moist tissue, Mean value: 1.2851E−09 mg of moxaverine/g of moist tissue
  Amount of active substance in the moist tissue: 1.5608E−09 mg of moxaverine/g of moist tissue and 9.6772E−10 mg of moxaverine/g of moist tissue and 1.3267E−09 mg of moxaverine/g of moist tissue
[1]; topical application
  Absorption by the eye after topical application to the surface: very well absorbed by the eye
  Factor of increase of concentration in the iris and the ciliary process from 30 minutes to 120 minutes: ~2
  Factor of increase of concentration in the retina from 30 to 120 minutes: 1.4
